Assay results from patent US4462941A, “Dynorphin amide analogs” (The Regents of the University of California, priority 1982, dated 1984).
Where no end group is shown, it is not given here.

Tests used:
[1] = test system: mice; assay: Analgesic activity of the peptide by itself (mouse tail-flick)
Experimental: (§1) Analgesia was measured by the tail-flick method of D'Amour and Smith, J. Pharmac. Exp. Ther., 72, pp. 74-79 (1941), incorporated herein by reference, as modified by Tulunay and Takemori, J. Pharmac. Exp. Ther., 190, pp. 395-400 (1974), incorporated herein by reference. […] Nonresponding animals were removed from the heat stimulus when reaction times exceeded 10 sec. to avoid the tail damage.
(§2) Drugs were injected 30 min. prior to testing, unless otherwise indicated.

[2] = test system: mouse vas deferens; details: read-out: IC50 inhibiting the twitch of the mouse vas deferens
[3] = compared with dynorphin(1-13)
[4] = test system: morphine tolerant animals; assay: Tail-flick analgesia, β-endorphin i.c.v. with or without dynorphin(1-13) i.c.v., morphine tolerant animals; type: in vivo; details: tolerant mice
Description: (§3) Male simonesen ICR mice (Gilroy, CA) weighing between 20-25 g were housed for at least one day prior to experimentation, and used within 5 days. Each mouse was used only once.
The animals were separated into two groups. The one group was morphine tolerant (e.g., addicted); the other group was naive (e.g., not addicted). […] Exp. Ther., 167, pp. 1-8 (1969), incorporated herein by reference.
(§4) The ED50 values, their 95% confidence limits and significance of the potency ratio between two ED50 values were determined by the method of Litchfield and Wilcoxon, J. Pharmac. Exp. Ther., 96: 99-113 (1949), incorporated herein by reference.

[5] = test system: morphine tolerant animals; assay: Tail-flick analgesia, morphine s.c. with or without peptide i.c.v., morphine tolerant animals; type: in vivo; details: tolerant mice
Experimental: as §3, §1, §2
The animals were separated into two groups. […] Exp. Ther., 167, pp. 1-8 (1969), incorporated herein by reference.
as §4

YGGFLRRIRP-NH2 [dynorphin(1-10) amide, Dynorphin(1-10)-NH2]
behavior at huge doses [1]: tends to produce convulsions | IC50 [2]: 0.24 nM | rate of metabolism by the host [3]: less quickly metabolized

CC[C@H](C)[C@H](NC(=O)[C@H](CCCNC(=N)N)NC(=O)[C@H](CCCNC(=N)N)NC(=O)[C@H](CC(C)C)NC(=O)[C@H](Cc1ccccc1)NC(=O)CNC(=O)CNC(=O)[C@@H](N)Cc1ccc(O)cc1)C(=O)N[C@@H](CCCNC(=N)N)C(=O)N1CCC[C@H]1C(=O)N[C@@H](CCCCN)C(=O)N[C@@H](CC(C)C)C(=O)N[C@@H](CCCCN)C(=O)O [dynorphin(1-13)]
IC50 [2]: 3.9 nM

β-endorphin
Analgesia (%) ([4]; β-endorphin 1 μg/mouse i.c.v. alone): 10% | Analgesia (%) ([4]; β-endorphin 2 μg/mouse i.c.v. alone): 40% | Analgesia (%) ([4]; β-endorphin 6 μg/mouse i.c.v. alone): 100% | ED50 of β-endorphin ([4]; β-endorphin i.c.v. alone): about 2.25 μg/mouse

CN1CC[C@]23c4c5ccc(O)c4O[C@H]2[C@@H](O)C=C[C@H]3[C@H]1C5.O=S(=O)(O)O [Morphine, morphine sulfate]
Analgesia (%) ([5]; morphine 60 mg/kg s.c. alone): 40% | Analgesia (%) ([5]; morphine 80 mg/kg s.c. alone): 90%
